The record followed here is patent publication US11976069B2, “Inhibitors of histone deacetylase useful for the treatment or prevention of HIV infection” (Merck Sharp & Dohme LLC, priority 2019, dated 2024).

This experiment deals with T1, HDAC8 (Homo sapiens, UniProt Q9BY41).
T1 construct: purchased Enzo Life Sciences (Farmingdale, N.Y.) BMIL-SE145-0100
T1 sequence (Q9BY41 1-377): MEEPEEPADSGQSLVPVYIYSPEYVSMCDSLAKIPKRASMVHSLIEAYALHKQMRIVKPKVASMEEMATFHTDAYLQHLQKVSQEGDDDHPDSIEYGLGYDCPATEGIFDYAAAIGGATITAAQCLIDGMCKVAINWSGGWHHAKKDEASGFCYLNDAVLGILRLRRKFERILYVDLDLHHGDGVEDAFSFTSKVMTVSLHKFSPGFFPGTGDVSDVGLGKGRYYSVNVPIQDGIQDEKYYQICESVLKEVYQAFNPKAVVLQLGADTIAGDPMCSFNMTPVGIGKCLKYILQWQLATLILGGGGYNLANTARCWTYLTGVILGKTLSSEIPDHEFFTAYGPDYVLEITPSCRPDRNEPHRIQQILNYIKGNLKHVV
In words: HDAC8 inhibition, modified Fluor-de-Lys assay. The note with it: 3 h pre-incubation, 200 μM substrate BML-KI178, read-out: HDAC-8 IC50. Format: biochemical. An excerpt:
Human HDAC Enzyme Inhibitor FLUOR-DE-LYS Assay Materials
Recombinant human HDAC8 (catalog number BMIL-SE145-0100) and HDAC10 (catalog number BML-SE559-0050) enzymes, HIDAC substrates BML-KI104 and BML-K1178, and HLDAC developer solutions BMIL-KI105 and BML-K1176 were purchased from Enzo Life Sciences (Farmingdale, N.Y.). Recombinant human HDAC5 and HDAC11 were purchased from BPS Bioscience (San Diego, Calif.)(catalog numbers 50045 and 50021). Substrate Boc-Lys(TFA)-AMC was obtained from Bachem (Bupendorf, Switzerland) (catalog number 1-1985). HDAC inhibitor suberoylanilide hydroxamic acid (SAHA) was obtained from Indofine (Hillsborough Township, N.J.) and trichostatin A (TSA) was obtained from Sigma-Aldrich (St. Louis, Mo.). […] HEPES pH 8.0 was obtained from Boston BioProducts (Ashland, Mass.), Tween-20 from Fisher Scientific (Hampton, N.H.) (catalog number BP337), TCEP from Calbiochem and 7.5% bovine serum albumin (BSA) from Life Technologies (Carlsbad, Calif.) (catalog number 15260037). 384-well, black assay plates were obtained from Corning (Corning, N.Y.) (catalog number 3575).
The histone deacetylase activities of HDAC1, HDAC2, HDAC3, HDAC6, and HDAC8 were measured in modified Fluor-de-Lys assays in 384-well format. In this assay, HDAC enzymes are initially incubated with an ε-acetyl (or -trifluoroacetyl)-L-lysine-containing substrate with a C-terminal amide having aminomethylcoumarin as the amine component. HDACs cleave the ε-acetyl group, rendering the resulting product susceptible to AMC cleavage by trypsin. The released AMC is then detected by its fluorescence.
The HDAC 1, 2 assays employed buffer A, which contained 20 mM HEPES, pH 8.0, 1 mM MgCl2, 137 mM NaCl, 2.7 mM KCl, 0.05% BSA. The HDAC3/SMRT assay employed buffer B, consisting of 20 mM HEPES, pH 8.0, 1 mM MgCl2, 50 mM NaCl, 2.7 mM KCl, 0.05% BSA, 0.005% Tween 20, and 10 μM IP4. The HDAC6 assay employed buffer C, consisting of 20 mM HEPES, pH 8.0, 1 mM MgCl2, 137 mM NaCl, 2.7 mM KCl, 0.5 mM TCEP (Calbiochem) and 0.05% BSA. The HDAC8 assay employed buffer D, consisting of 20 mM HEPES, pH 8.0, 1 mM MgCl2, 100 mM NaCl, 20 mM KCl, 0.1% n-octyl-β-D-glucoside (Anatrace, Maumee, Ohio) and 0.05% BSA. All steps were performed at room temperature (23° C.). The assay was performed by pre-incubating serial dilutions of test compounds with the target HDAC prior to initiation with substrate. Each compound was titrated in a 10-point dose response, using a 1:3 fold dilution scheme, with 0.15 ul of solution added by ECHO555 to the plate, followed by the addition of 20 μl of the appropriate HDAC isoform diluted in appropriate assay buffer. […] Final conditions used for each assay were: 1. HDAC 1, 0.3 nM total enzyme, 20 μM substrate BML-KI104; 2. HDAC 2, 1.5 nM total enzyme, 40 μM substrate BML-KI104; 3. HDAC 3/SMRT, 0.3 nM total enzyme, 20 μM substrate BML-KI104; 4. HDAC 6, 1.3 nM total enzyme, 2.5 μM substrate BML-KI104; 5. HDAC 8, 1.3 nM total enzyme, 200 μM substrate BML-KI178; the final high dose of test compound was 30 μM. For potent compounds, 900 nM was used as the final high dose. The reactions were stopped and developed by addition of 30 ul of HDAC developer solution containing a saturating level of HDAC inhibitor as follows: 1.

Like-named read-outs stand apart in the source and are kept apart here. A value given as a limit tells only on which side of the number the result lay.

Broadly, the IC50 is the point on the concentration scale where inhibition reaches its midpoint. With `CCC(=O)CCCCCC1NC(=O)C2CC2N2CCC(CCCCCn3c(=O)ccc4cc(ccc43)-c3cnc1o3)CC2` [Compound 7, (11S,4S)-4-(6-oxooctyl)-61,62-dihydro-3-aza-5(2,5)-oxazola-6(6,1)-quinolina-12(4,1)-piperidina-1(1,2)-cyclopropanadodecaphane-62,2-dione], where the note is “[…] enzyme”, the half-inhibitory concentration (IC50) was > 900 nM. Turning to `CCC(=O)CCCCC[C@@H]1NC(=O)[C@H]2CC23CCN(CCCOCCCn2ccc4cc(ccc4c2=O)-c2cnc1[nH]2)CC3` [Compound 12, (3S,6S)-6-(6-oxooctyl)-22-oxa-5,8,18,26,33-pentaazahexacyclo[24.2.2.1˜7,10˜0.1˜11,15˜0.1˜14,18˜0.0˜1,3˜]tritriaconta-7,9,11(32),12,14,16-hexaene-4,31-dione], the IC50 ([…] enzyme) is 808 nM. In the case of `CCC(=O)CCCCC[C@H](NC(=O)[C@H]1CC12CCN(CC)CC2)c1[nH]c2nc1C(=O)NCCC/C=C\c1cccc-2c1` [Compound 14, (1S)-6-ethyl-N-{(1S)-7-oxo-1-[(11Z)-6-oxo-3,7,18-triazatricyclo[11.3.1.1~2,5~]octadeca-1(17),2(18),4,11,13,15-hexaen-4-yl]nonyl}-6-azaspiro[2.5]octane-1-carboxamide], the 50% inhibitory concentration (IC50) (1.3 nM enzyme) was > 900 nM. The same measure, in the same setting: to `CCC(=O)CCCCC[C@H](NC(=O)[C@H]1CC12CCN(CC)CC2)c1[nH]c2nc1C(=O)NCCC/C=C/c1cccc-2c1` [Compound 15, (1S)-6-ethyl-N-{(1S)-7-oxo-1-[(11E)-6-oxo-3,7,18-triazatricyclo[11.3.1.1~2,5~]octadeca-1(17),2(18),4,11,13,15-hexaen-4-yl]nonyl}-6-azaspiro[2.5]octane-1-carboxamide] belongs > 900 nM. “(11S,4S)-4-(6-oxooctyl)-61,62-dihydro-3-aza-5(2,5)-oxazola-6(6,1)-quinolina-12(4,1)-piperidina-1(1,2)-cyclopropanadodecaphane-62,2-dione [Compound 8]”: the IC50 ([…] enzyme) is > 900 nM.
